Data taken from patent US12187681B2 (Shanghai East Hospital, priority 2019, dated 2025).
Where a name gives a salt, the structure may show the parent alone.

What was measured:
[1] = biological target: T1, hERG (human ether-a-go-go related gene potassium channel, KCNH2) (Homo sapiens, UniProt Q12809); assay: hERG channel whole-cell patch clamp (Ion Channel Activity Measurement); assay type: cell-based; conditions: human, HEK293 cells expressing the human ERG potassium channel, room temperature; for inhibition at 1 μM: pH 7.4, 1 μM test article; for inhibition at 10 μM: pH 7.4, 10 μM test article
T1 construct: expressed in transfected cells; host or cells: HEK293
T1 sequence (Q12809 whole entry): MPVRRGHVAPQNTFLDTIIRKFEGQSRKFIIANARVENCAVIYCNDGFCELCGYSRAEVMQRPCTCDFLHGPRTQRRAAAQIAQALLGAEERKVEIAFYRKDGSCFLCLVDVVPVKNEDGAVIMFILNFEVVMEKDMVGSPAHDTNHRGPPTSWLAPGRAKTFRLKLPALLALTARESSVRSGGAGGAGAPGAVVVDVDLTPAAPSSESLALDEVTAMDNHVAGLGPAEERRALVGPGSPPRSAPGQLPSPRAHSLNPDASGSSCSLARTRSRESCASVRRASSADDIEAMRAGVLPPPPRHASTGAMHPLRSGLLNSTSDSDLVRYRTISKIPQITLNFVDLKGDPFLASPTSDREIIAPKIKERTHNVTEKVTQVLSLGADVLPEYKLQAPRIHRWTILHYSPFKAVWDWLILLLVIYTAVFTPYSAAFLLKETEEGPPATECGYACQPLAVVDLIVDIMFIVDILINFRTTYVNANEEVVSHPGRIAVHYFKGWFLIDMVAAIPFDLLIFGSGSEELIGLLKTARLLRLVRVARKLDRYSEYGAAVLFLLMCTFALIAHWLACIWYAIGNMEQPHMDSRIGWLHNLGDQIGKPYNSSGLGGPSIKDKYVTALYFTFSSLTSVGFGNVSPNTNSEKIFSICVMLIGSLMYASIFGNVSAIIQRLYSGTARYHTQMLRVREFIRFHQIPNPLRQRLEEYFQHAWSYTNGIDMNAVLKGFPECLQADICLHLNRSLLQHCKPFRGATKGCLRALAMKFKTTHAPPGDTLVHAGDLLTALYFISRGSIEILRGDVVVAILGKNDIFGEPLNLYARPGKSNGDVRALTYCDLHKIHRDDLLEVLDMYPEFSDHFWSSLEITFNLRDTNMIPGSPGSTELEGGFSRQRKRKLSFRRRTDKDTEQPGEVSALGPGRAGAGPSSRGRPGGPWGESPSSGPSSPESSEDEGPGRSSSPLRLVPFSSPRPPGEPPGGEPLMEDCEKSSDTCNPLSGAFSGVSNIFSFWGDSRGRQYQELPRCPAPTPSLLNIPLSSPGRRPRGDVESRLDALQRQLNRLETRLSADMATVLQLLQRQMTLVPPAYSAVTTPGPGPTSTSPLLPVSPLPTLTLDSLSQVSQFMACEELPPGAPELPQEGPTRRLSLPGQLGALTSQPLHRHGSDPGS
Protocol: HEK293 cell line expressing the human ERG (ether-a-go-go related gene) potassium channel (Potassium voltage-gated channel subfamily H member 2). cDNA strictly similar to GenBank accession number: NM_000238
(§1) Cells expressing channels were cultured in medium supplemented with 20% FBS in HAM'S F12 culture dish. Cells grew in a humidified incubator at 37° C. under 5% carbon dioxide. To passage cells, remove poor medium and rinse the cells once with PBS 1X. […] Place plate on a 37° C. warming incubator 5 min. As soon as cells are detached, add 5 ml of 37° C. complete medium. Draw cell suspension into a sterile pipet and homogenize cells gently to dissociate cells aggregates. Amplify or maintain the cells by seeding 2.5*105 cells in a 6 cm dish (final volume: 5 ml). To maintain electrophysiological performances, cell density must not exceed 80%. On the day before patch clamp experiment, 3*103 cells were seeded on coverslips in the 24-well plate and incubated at 37° C. in 5% carbon dioxide.
(§2) Glass pipette (BF150-86-10, Sutter Instruments) was made by puller (P97, Sutter Instruments). The glass pipette was manipulated using Micro-manipulator (Carm-C-S, MCI Instruments) under the microscope (AE31EF-INV, Motic). After touching the cell, a slight suction was applied to achieve high seal (GΩ). Fast capacitance (in pF) compensation was made after high seal was achieved; after achieving high seal, the membrane was broken, Cell capacitance (in pF) compensation was made from whole-cell capacitance compensation after the whole cell mode was achieved. No leak subtraction was made.
(§3) Cell was incubated with the test article for 5 minutes, or until the current reached a steady-state level. Multiple concentrations of test article were tested. The test articles were applied gradually from low to high concentration. The test and control solutions were flown into a recording chamber mounted on the stage of an inverted microscope via a gravity-fed solution delivery system. During the experiment, solutions were withdrawn from the recording chamber by vacuum aspiration. Each concentration was tested at multiple times. Each cell acted as its own control. All tests were performed at room temperature (23-25° C.).
hERG current was recorded under a holding potential at −80 mV and then depolarized to 30 mV for 2.5 seconds to activate the hERG channel. The peak tail currents were induced by a repolarizing pulse to −50 mV for 4 seconds. This voltage-clamp pulse protocol was performed continuously during the experiment. An interpulse interval of 10 seconds allowed recovery from inactivation. An interpulse of −50 mV test for 0.5 second before 30 mV depolarized step was included for leak current correction

[2] = biological target: T2, CaV1.2 (L-type voltage-dependent calcium channel; CACNA1C, CACNB2, CACNA2D1) (Homo sapiens, UniProt Q13936); assay: CaV1.2 channel whole-cell patch clamp (Ion Channel Activity Measurement); assay type: cell-based; conditions: human, room temperature; for inhibition at 5 min, 1 μM: pH 7.4, 1 μM test article; for inhibition at 5 min, 10 μM: pH 7.4, 10 μM test article, read-out: CaV 1.2 10 μM (ion-channel inhibition)
T2 construct: expressed in transfected cells; host or cells: CHO
T2 sequence (Q13936 1-2138 isoform Q13936-12): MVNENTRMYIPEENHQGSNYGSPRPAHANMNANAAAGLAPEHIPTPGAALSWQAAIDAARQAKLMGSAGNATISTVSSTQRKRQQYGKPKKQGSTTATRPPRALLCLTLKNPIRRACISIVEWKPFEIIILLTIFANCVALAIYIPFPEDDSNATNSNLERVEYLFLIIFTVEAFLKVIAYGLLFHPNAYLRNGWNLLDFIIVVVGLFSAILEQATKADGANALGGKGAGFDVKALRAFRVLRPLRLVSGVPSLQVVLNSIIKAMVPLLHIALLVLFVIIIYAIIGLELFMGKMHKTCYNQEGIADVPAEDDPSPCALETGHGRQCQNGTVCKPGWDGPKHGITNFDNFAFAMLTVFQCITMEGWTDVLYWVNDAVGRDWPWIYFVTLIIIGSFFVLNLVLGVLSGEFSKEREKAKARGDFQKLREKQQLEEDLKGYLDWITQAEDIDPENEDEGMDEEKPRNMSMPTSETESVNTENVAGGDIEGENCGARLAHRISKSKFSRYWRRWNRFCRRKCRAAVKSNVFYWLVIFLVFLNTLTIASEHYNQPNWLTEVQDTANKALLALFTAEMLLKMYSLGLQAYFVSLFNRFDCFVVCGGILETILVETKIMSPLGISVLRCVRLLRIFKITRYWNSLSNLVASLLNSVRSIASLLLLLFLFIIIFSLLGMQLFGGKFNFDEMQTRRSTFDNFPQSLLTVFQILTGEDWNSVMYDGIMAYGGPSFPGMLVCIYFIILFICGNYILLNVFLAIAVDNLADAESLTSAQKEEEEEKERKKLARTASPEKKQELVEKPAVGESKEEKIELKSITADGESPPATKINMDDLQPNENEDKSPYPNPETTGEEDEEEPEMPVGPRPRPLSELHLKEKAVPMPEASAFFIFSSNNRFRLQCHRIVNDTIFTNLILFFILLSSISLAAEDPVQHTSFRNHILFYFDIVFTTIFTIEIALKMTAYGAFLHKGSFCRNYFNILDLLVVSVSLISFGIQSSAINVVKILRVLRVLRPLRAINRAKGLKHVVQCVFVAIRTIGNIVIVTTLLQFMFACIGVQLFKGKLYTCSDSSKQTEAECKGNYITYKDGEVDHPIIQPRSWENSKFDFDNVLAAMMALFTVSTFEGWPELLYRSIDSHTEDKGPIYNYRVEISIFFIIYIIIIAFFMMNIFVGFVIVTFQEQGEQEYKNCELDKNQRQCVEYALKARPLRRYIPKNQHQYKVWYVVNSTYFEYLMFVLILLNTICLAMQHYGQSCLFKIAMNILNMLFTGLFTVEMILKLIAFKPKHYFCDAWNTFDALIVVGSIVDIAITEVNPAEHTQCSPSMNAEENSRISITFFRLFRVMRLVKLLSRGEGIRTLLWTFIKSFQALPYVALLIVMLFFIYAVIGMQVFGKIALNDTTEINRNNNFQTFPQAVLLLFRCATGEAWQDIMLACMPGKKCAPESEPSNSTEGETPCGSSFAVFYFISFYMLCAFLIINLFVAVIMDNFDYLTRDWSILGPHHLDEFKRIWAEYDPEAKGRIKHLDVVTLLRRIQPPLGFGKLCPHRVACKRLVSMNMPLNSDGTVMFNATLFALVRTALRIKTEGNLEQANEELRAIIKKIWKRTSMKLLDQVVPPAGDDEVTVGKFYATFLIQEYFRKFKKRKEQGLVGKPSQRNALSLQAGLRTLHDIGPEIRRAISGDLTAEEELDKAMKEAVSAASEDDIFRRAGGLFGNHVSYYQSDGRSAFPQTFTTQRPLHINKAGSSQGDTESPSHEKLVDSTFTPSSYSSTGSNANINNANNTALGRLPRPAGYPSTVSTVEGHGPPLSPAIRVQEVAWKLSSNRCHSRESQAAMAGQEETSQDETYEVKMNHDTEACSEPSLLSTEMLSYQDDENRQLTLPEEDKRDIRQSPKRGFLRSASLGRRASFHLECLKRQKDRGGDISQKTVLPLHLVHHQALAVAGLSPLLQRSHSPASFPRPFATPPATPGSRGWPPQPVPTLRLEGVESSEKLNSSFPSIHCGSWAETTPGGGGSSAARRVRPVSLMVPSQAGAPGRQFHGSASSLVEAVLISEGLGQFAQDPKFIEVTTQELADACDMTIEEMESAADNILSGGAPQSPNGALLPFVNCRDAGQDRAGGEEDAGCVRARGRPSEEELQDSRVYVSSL
T2 sequence (Q08289 1-605 isoform Q08289-2 partner): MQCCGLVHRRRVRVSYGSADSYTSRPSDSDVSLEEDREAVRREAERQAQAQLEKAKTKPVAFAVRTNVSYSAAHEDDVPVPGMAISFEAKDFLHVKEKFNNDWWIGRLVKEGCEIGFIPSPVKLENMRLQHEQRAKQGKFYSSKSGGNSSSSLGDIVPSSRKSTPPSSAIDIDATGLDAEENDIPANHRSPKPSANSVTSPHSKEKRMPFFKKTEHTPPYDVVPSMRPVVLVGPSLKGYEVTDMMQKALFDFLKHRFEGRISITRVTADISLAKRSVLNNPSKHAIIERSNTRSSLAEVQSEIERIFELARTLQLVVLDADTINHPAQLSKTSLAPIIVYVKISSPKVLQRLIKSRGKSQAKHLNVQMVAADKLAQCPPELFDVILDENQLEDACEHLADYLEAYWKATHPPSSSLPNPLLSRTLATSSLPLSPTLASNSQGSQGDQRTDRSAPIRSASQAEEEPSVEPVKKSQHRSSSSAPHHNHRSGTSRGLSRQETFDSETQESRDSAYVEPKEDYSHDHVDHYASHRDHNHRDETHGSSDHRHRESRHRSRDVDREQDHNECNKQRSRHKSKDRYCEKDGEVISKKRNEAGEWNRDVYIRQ
T2 sequence (P54289 25-1091 isoform P54289-2 partner limits assumed): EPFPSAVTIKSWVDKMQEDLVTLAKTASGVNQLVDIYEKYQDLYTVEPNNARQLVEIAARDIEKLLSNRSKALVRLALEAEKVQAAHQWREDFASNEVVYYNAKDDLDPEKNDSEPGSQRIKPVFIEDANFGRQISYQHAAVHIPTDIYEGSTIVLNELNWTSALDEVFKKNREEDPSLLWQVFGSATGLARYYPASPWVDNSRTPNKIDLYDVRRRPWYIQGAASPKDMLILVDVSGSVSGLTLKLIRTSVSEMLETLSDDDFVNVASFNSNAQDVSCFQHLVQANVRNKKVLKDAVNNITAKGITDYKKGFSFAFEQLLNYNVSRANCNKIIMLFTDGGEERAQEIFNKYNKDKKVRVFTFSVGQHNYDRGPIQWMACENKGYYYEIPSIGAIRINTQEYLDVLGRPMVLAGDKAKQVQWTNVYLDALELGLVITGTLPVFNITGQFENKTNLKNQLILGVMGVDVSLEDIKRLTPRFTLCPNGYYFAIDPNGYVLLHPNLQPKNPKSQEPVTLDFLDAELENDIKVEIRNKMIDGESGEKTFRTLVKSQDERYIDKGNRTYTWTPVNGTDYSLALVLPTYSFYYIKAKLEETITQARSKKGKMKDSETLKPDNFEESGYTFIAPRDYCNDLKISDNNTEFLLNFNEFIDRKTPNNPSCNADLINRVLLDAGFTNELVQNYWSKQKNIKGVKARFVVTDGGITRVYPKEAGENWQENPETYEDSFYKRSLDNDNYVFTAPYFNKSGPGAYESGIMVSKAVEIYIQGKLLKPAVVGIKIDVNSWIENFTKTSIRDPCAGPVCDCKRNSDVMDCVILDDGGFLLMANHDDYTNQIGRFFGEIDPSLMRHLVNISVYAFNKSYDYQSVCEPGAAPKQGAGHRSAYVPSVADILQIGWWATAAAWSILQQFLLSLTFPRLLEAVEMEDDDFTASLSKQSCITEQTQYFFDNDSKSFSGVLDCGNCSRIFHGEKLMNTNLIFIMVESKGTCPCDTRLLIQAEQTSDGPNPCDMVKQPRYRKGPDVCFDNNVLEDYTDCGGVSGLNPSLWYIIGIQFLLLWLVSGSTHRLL
T2 sequence (P54289 957-1103 partner limits assumed): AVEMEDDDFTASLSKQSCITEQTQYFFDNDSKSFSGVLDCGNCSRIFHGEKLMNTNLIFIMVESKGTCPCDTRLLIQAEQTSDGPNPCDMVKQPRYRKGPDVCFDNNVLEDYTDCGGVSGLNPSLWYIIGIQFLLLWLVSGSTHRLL
Protocol: • CHO cell line stably expressing human calcium channel, voltage-dependent, L type, • CACNA1C: cDNA strictly similar to GenBank accession number: NM_000719 • CACNB2: cDNA strictly similar to GenBank accession number: NM_000724 • CACNA2D1: cDNA strictly similar to GenBank accession number: NM_000722 Iks Channel Cell Line:
as §1
Bath solution: 140 mM TEA-C1, 2 mM MgCl2·6H2O, 10 mM CaCl2, 10 mM HEPES, 5 mM D-glucose, pH=7.4 with TEA-OH. Pipette solution: 120 mM CsCl, 1 mM MgCl2·6H2O, 10 mM HEPES, 10 mM EGTA, 0.3 mM Na2-GTP, 4 mM Mg-ATP, pH=7.2 with CsOH.
as §2, §3
Cav1.2 current was recorded under a holding potential at −80 mV and then depolarized to +10 mV for 0.3 seconds. This protocol was repeated at 20 s intervals to observe the effect of test articles on the peak of Cav1.2 current.

Compound	inhibition at 1 μM [1] [%]	inhibition at 10 μM [1] [%]	inhibition at 5 min, 1 μM [2] [%]	inhibition at 5 min, 10 μM [2] [%]
COc1ccc2ccccc2c1Nc1c([N+](=O)[O-])ccc2ccccc12 [Compound A196, 2-methoxy-N-(2-nitronaphthalen-1-yl)naphthalen-1-amine]	< 25	< 25	< 25	< 25
Cc1cc2ccccc2c(O)c1Cc1c(C)cc2ccccc2c1O [Compound A035, 2,2′-methylenebis(3-methylnaphthalen-1-ol)]	< 25	50 to 75	< 25	75 to 100
Nc1cc(Cc2c(N)ccc3ccccc23)c2ccccc2c1 [Compound A022-2, 4-((2-aminonaphthalen-1-yl)methyl)naphthalen-2-amine]	< 25	75 to 100	< 25	25 to 50
Cc1cc2ccccc2c(Cc2c(O)c(C)cc3ccccc23)c1O [Compound A032, 1,1′-methylenebis(3-methylnaphthalen-2-ol)]	< 25	< 25	< 25	< 25
CC(C)Oc1ccc2ccccc2c1Cc1c(OCCN)ccc2ccccc12 [Compound A246, 2-((1-((2-isopropoxynaphthalen-1-yl)methyl)naphthalen-2-yl)oxy)ethan-1-amine]	25 to 50			
CS(=O)(=O)Nc1ccc2ccccc2c1Cc1c(O)ccc2ccccc12 [Compound A025, N-(1-((2-hydroxynaphthalen-1-yl)methyl)naphthalen-2-yl)methanesulfonamide]	< 25	25 to 50	< 25	25 to 50
COc1cccc(-c2cccnc2)c1Cc1c(O)cccc1-c1cccnc1 [Compound A117-I-1, 2-(2-methoxy-6-(pyridin-3-yl)benzyl)-3-(pyridin-3-yl)phenol]	< 25	25 to 50	< 25	< 25
CS(=O)(=O)Nc1cc2ccccc2cc1Cc1c(NS(C)(=O)=O)ccc2ccccc12 [Compound A024-3, N-(3-((2-(methylsulfonamido)naphthalen-1-yl)methyl)naphthalen-2-yl)methanesulfonamide]			< 25	25 to 50
NC(=O)c1ccc2c(Cc3c(O)ccc4cc(C(N)=O)ccc34)c(O)ccc2c1 [Compound A123, 5,5′-methylenebis(6-hydroxy-2-naphthamide)]	< 25	25 to 50	< 25	< 25
CCOCOc1ccc2ccccc2c1Cc1c(OCCN2CCCC2)ccc2ccccc12 [Compound A254, 1-(2-((1-((2-(ethoxymethoxy)naphthalen-1-yl)methyl)naphthalen-2-yl)oxy)ethyl)pyrrolidine]	< 25	75 to 100	< 25	50 to 75
CCN(CC)CCOc1ccc2ccccc2c1N(C)c1c(OC)ccc2ccccc12 [Compound A111-I-2, 2-(2-(diethylamino)ethoxy)-N-(2-methoxynaphthalen-1-yl)-N-methylnaphthalen-1-amine 2,2,2-trifluoroacetate]	50 to 75	75 to 100	< 25	25 to 50
Oc1ccc2c(c1Cc1c(O)ccc3c1CNCC3)CCCC2 [Compound A141-I-1, 8-((2-hydroxy-5,6,7,8-tetrahydronaphthalen-1-yl)methyl)-1,2,3,4-tetrahydroisoquinolin-7-ol]	< 25	< 25	< 25	< 25
COc1ccc2ccccc2c1Cc1c(OCC2CCNCC2)ccc2ccccc12 [Compound A271, 4-(((1-((2-methoxynaphthalen-1-yl)methyl)naphthalen-2-yl)oxy)methyl)piperidine]	75 to 100	75 to 100	50 to 75	
Oc1cccc(-c2cccnc2)c1Cc1c(O)cccc1-c1cccnc1 [Compound A117, 2,2′-methylenebis(3-(pyridin-3-yl)phenol)]	< 25	< 25	< 25	25 to 50
CCN(CC)CCOc1ccc2ccccc2c1Cc1c(OCCN(CC)CC)ccc2ccccc12 [Compound A103, 2,2′-((methylenebis(naphthalene-1,2-diyl))bis(oxy))bis(N,N-diethylethan-1-amine) formic acid]			< 25	< 25
CN1CCC(COc2ccc3ccccc3c2Cc2c(O)ccc3ccccc23)C1 (centres unmarked) [Compound A262, 1-((2-((1-methylpyrrolidin-3-yl)methoxy)naphthalen-1-yl)methyl)naphthalen-2-ol]	75 to 100	75 to 100	< 25	75 to 100
CCN(CC)CCOc1c(C(C)C)cc2ccccc2c1Cc1c(O)c(C(C)C)cc2ccccc12 [Compound A102, 1-((2-(2-(diethylamino)ethoxy)-3-isopropylnaphthalen-1-yl)methyl)-3-isopropylnaphthalen-2-ol hydrochloride Salt]	50 to 75	75 to 100	< 25	75 to 100
O=C1Cc2ccccc2N1Cc1c(O)ccc2ccccc12 [Compound A057, 1-((2-hydroxynaphthalen-1-yl)methyl)indolin-2-one]	< 25	< 25	< 25	< 25
O=C(c1c(O)ccc2ccccc12)c1c(O)ccc2ccccc12 [Compound A007, bis(2-hydroxynaphthalen-1-yl)methanone]	< 25	25 to 50	< 25	50 to 75
CCN(CC)CCOc1ccc2nccnc2c1Cc1c(O)ccc2ccccc12 [Compound A168, 1-((6-(2-(diethylamino)ethoxy)quinoxalin-5-yl)methyl)naphthalen-2-ol]	< 25	< 25	< 25	< 25
COCCOc1ccc2ccccc2c1Cc1c(OCCN2CCCC2)ccc2ccccc12 [Compound A258, 1-(2-((1-((2-(2-methoxyethoxy)naphthalen-1-yl)methyl)naphthalen-2-yl)oxy)ethyl)pyrrolidine]	75 to 100	75 to 100	< 25	75 to 100
Oc1cccc2c1C(c1c(O)ccc3ccccc13)CC2 (centres unmarked) [Compound A079, 1-(7-hydroxy-2,3-dihydro-1H-inden-1-yl)naphthalen-2-ol]	< 25	75 to 100	< 25	50 to 75
CCOCOc1cccc2c1C(=O)CCC2 [Compound A076, 8-(ethoxymethoxy)-3,4-dihydronaphthalen-1(2H)-one]	< 25	50 to 75	< 25	25 to 50
CS(=O)(=O)Nc1ccc2ccccc2c1Cc1c(NS(C)(=O)=O)ccc2ccccc12 [Compound A024, N,N′-(methylenebis(naphthalene-1,2-diyl))dimethanesulfonamide]			< 25	< 25
